{
  "source": "patent US10016375B2",
  "about": "“Materials and methods for controlling infections” (priority 2013, dated 2018)",
  "origin": "cited, not measured here",
  "key": {"[1]": {"conditions": "4% chlorhexidine gluconate applied to the eyes"}, "[2]": {"conditions": "three consecutive cataract operations"}},
  "data": [
    {"smiles": "CC(=O)O.CC(=O)O.NC(=N\\CCCCCC/N=C(N)/N=C(\\N)Nc1ccc(Cl)cc1)/N=C(\\N)Nc1ccc(Cl)cc1", "note": "[Chlorhexidine diacetate]", "values": [
      {"measurement": "Acute toxicity when applied to the eye", "result": "highly acutely toxic"}
    ]},
    {"smiles": "[H]/N=C(\\N/C(=N/[H])NCCCCCCNC(=N)NC(=N)Nc1ccc(Cl)cc1)Nc1ccc(Cl)cc1", "note": "[Chlorhexidine gluconate]", "values": [
      {"measurement": "Corneal damage (bullous keratopathy, epithelial defects, corneal opacification) when applied to the eyes", "setting": "[1]", "result": "may produce corneal damage"}
    ]},
    {"smiles": "[H]/N=C(\\N/C(=N/[H])NCCCCCCNC(=N)NC(=N)Nc1ccc(Cl)cc1)Nc1ccc(Cl)cc1", "note": "[chlorhexidine]", "values": [
      {"measurement": "Effects in the retina or optic nerve after intraocular irrigation", "setting": "[2]", "result": "No effects were observed"},
      {"measurement": "Corneal endothelium damage after intraocular irrigation", "setting": "[2]; two of the three patients", "result": "corneal endothelium damage was so severe that penetrating keratoplasty had to be performed"}
    ]}
  ]
}
